Measurements from ChEMBL document CHEMBL5614375, “PepExplainer: An explainable deep learning model for selection-based macrocyclic peptide bioactivity prediction and optimization” (Eur J Med Chem, 2024).
Bridge positions count the residues as written; N and C are the ends. Peptide text beside a SMILES is read from it.

target: T1, IL17-RE-IL-17C (Homo sapiens, UniProt Q8NFR9+Q9P0M4); experiment: Inhibition of interleukin-17RE/biotinylated IL-17C protein-protein interaction (unknown origin) incubated for 1 hrs by competitive ELISA; assay type: protein-complex assay
T1 sequence (Q9P0M4 whole entry): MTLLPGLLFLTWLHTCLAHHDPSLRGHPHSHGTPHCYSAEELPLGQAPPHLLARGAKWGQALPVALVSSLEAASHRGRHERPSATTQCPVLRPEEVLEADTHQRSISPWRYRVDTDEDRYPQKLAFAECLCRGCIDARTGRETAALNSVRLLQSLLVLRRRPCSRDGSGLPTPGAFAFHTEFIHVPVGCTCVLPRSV
T1 sequence (Q8NFR9 whole entry): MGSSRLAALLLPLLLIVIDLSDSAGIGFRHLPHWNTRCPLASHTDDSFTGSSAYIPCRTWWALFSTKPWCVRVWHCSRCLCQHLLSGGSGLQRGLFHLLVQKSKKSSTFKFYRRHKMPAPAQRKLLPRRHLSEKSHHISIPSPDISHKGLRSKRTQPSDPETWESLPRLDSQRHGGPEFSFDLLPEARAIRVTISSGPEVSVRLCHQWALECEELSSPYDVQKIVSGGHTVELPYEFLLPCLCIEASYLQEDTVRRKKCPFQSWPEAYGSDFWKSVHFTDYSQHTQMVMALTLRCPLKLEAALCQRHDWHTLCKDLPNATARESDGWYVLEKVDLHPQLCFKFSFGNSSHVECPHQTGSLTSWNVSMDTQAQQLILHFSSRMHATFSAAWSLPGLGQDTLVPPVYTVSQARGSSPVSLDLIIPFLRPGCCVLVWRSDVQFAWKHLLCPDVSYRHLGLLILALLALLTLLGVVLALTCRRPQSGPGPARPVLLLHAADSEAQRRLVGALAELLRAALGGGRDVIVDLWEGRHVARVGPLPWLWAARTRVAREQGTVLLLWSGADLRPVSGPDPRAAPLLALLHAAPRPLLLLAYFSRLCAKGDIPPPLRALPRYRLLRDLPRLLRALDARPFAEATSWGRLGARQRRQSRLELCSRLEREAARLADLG

IC50 [µM]	SMILES
23.3	CC[C@H](C)[C@@H]1NC(=O)[C@H](CCCNC(=N)N)NC(=O)[C@H](Cc2ccc(O)cc2)NC(=O)[C@H](Cc2ccc(O)cc2)NC(=O)[C@H](Cc2c[nH]cn2)NC(=O)[C@H](Cc2c[nH]cn2)NC(=O)[C@H](Cc2ccc(O)cc2)NC(=O)CSC[C@@H](C(=O)NCC(N)=O)NC(=O)CNC(=O)[C@H](CC(C)C)NC(=O)[C@H](CCC(=O)O)NC(=O)CNC(=O)[C@H](Cc2ccc(O)cc2)NC(=O)[C@H](Cc2ccccc2)NC1=O ({CH2CO}-YHHYYRIFYGELGCG-NH2; thioether N-14)
0.083	CC[C@H](C)[C@@H]1NC(=O)[C@H](CCCNC(=N)N)NC(=O)[C@H](Cc2ccc(O)cc2)NC(=O)[C@H](Cc2ccc(O)cc2)NC(=O)[C@H](Cc2c[nH]cn2)NC(=O)[C@H](Cc2c[nH]cn2)NC(=O)[C@H](Cc2ccc(O)cc2)NC(=O)CSC[C@@H](C(=O)NCC(N)=O)NC(=O)CNC(=O)[C@H](CC(C)C)NC(=O)[C@H](CC(=O)O)NC(=O)CNC(=O)[C@H](Cc2ccc(O)cc2)NC(=O)[C@H](CC(C)C)NC1=O ({CH2CO}-YHHYYRILYGDLGCG-NH2; thioether N-14)
0.073	CC[C@H](C)[C@@H]1NC(=O)[C@H](CCCNC(=N)N)NC(=O)[C@H](Cc2ccc(O)cc2)NC(=O)[C@H](Cc2ccc(O)cc2)NC(=O)[C@H](Cc2c[nH]cn2)NC(=O)[C@H](Cc2c[nH]cn2)NC(=O)[C@H](Cc2ccc(O)cc2)NC(=O)CSC[C@@H](C(=O)NCC(N)=O)NC(=O)CNC(=O)[C@H](CC(C)C)NC(=O)[C@H](CCCCN)NC(=O)CNC(=O)[C@H](Cc2ccc(O)cc2)NC(=O)[C@H](CC(C)C)NC1=O ({CH2CO}-YHHYYRILYGKLGCG-NH2; thioether N-14)
0.047	CC[C@H](C)[C@@H]1NC(=O)[C@H](CCCNC(=N)N)NC(=O)[C@H](Cc2ccc(O)cc2)NC(=O)[C@H](Cc2ccc(O)cc2)NC(=O)[C@H](Cc2c[nH]cn2)NC(=O)[C@H](Cc2c[nH]cn2)NC(=O)[C@H](Cc2ccc(O)cc2)NC(=O)CSC[C@@H](C(=O)NCC(N)=O)NC(=O)CNC(=O)[C@H](CC(C)C)NC(=O)[C@H](CC(N)=O)NC(=O)CNC(=O)[C@H](Cc2ccc(O)cc2)NC(=O)[C@H](CC(C)C)NC1=O ({CH2CO}-YHHYYRILYGNLGCG-NH2; thioether N-14)
0.0014	CC[C@H](C)[C@@H]1NC(=O)[C@H](Cc2c[nH]cn2)NC(=O)[C@H](Cc2ccc(O)cc2)NC(=O)CSC[C@@H](C(=O)NCC(N)=O)NC(=O)CNC(=O)[C@H](CC(C)C)NC(=O)[C@H](CC(N)=O)NC(=O)CNC(=O)[C@H](Cc2ccc(O)cc2)NC(=O)[C@H](CC(C)C)NC(=O)[C@H](CO)NC(=O)[C@H](C)NC(=O)[C@H](Cc2ccc(O)cc2)NC(=O)[C@H](Cc2ccc(O)cc2)NC1=O ({CH2CO}-YHIYYASLYGNLGCG-NH2; thioether N-14)
0.0017	CC[C@H](C)[C@@H]1NC(=O)[C@H](Cc2c[nH]cn2)NC(=O)[C@H](Cc2ccc(O)cc2)NC(=O)CSC[C@@H](C(=O)NCC(N)=O)NC(=O)CNC(=O)[C@H](CC(C)C)NC(=O)[C@H](CC(=O)O)NC(=O)CNC(=O)[C@H](Cc2ccc(O)cc2)NC(=O)[C@H](CC(C)C)NC(=O)[C@H](CO)NC(=O)[C@H](CCCNC(=N)N)NC(=O)[C@H](Cc2ccc(O)cc2)NC(=O)[C@H](Cc2ccc(O)cc2)NC1=O ({CH2CO}-YHIYYRSLYGDLGCG-NH2; thioether N-14)
0.089	CC[C@H](C)[C@@H]1NC(=O)[C@H](CCCNC(=N)N)NC(=O)[C@H](Cc2ccc(O)cc2)NC(=O)[C@H](Cc2ccc(O)cc2)NC(=O)[C@H](CCCCN)NC(=O)[C@H](Cc2c[nH]cn2)NC(=O)[C@H](Cc2ccc(O)cc2)NC(=O)CSC[C@@H](C(=O)NCC(N)=O)NC(=O)CNC(=O)[C@H](CC(C)C)NC(=O)[C@H](CCC(=O)O)NC(=O)CNC(=O)[C@H](Cc2ccc(O)cc2)NC(=O)[C@H](CC(C)C)NC1=O ({CH2CO}-YHKYYRILYGELGCG-NH2; thioether N-14)
0.068	CC[C@H](C)[C@@H]1NC(=O)[C@H](CCCNC(=N)N)NC(=O)[C@H](Cc2ccc(O)cc2)NC(=O)[C@H](Cc2ccc(O)cc2)NC(=O)[C@H](CC(C)C)NC(=O)[C@H](Cc2c[nH]cn2)NC(=O)[C@H](Cc2ccc(O)cc2)NC(=O)CSC[C@@H](C(=O)NCC(N)=O)NC(=O)CNC(=O)[C@H](CC(C)C)NC(=O)[C@H](CCC(=O)O)NC(=O)CNC(=O)[C@H](Cc2ccc(O)cc2)NC(=O)[C@H](CC(C)C)NC1=O ({CH2CO}-YHLYYRILYGELGCG-NH2; thioether N-14)
0.015	CC[C@H](C)[C@@H]1NC(=O)[C@H](CCCNC(=N)N)NC(=O)[C@H](Cc2ccc(O)cc2)NC(=O)[C@H](Cc2ccc(O)cc2)NC(=O)[C@H](CCC(N)=O)NC(=O)[C@H](Cc2c[nH]cn2)NC(=O)[C@H](Cc2ccc(O)cc2)NC(=O)CSC[C@@H](C(=O)NCC(N)=O)NC(=O)CNC(=O)[C@H](CC(C)C)NC(=O)[C@H](CCC(=O)O)NC(=O)CNC(=O)[C@H](Cc2ccc(O)cc2)NC(=O)[C@H](CC(C)C)NC1=O ({CH2CO}-YHQYYRILYGELGCG-NH2; thioether N-14)
> 30	CC[C@H](C)[C@@H]1NC(=O)[C@H](CCCNC(=N)N)NC(=O)[C@H](Cc2ccc(O)cc2)NC(=O)[C@H](Cc2ccc(O)cc2)NC(=O)[C@H](CCC(N)=O)NC(=O)[C@H](Cc2c[nH]cn2)NC(=O)[C@H](Cc2ccc(O)cc2)NC(=O)CSC[C@@H](C(=O)NCC(N)=O)NC(=O)[C@H](C(C)C)NC(=O)[C@H](CC(C)C)NC(=O)[C@H](CCC(=O)O)NC(=O)CNC(=O)[C@H](Cc2ccc(O)cc2)NC(=O)[C@H](CC(C)C)NC1=O ({CH2CO}-YHQYYRILYGELVCG-NH2; thioether N-14)
0.108	CC[C@H](C)[C@@H]1NC(=O)[C@H](CCCNC(=N)N)NC(=O)[C@H](Cc2ccc(O)cc2)NC(=O)[C@H](Cc2ccc(O)cc2)NC(=O)[C@H](CCCNC(=N)N)NC(=O)[C@H](Cc2c[nH]cn2)NC(=O)[C@H](Cc2ccc(O)cc2)NC(=O)CSC[C@@H](C(=O)NCC(N)=O)NC(=O)CNC(=O)[C@H](CC(C)C)NC(=O)[C@H](CCC(=O)O)NC(=O)CNC(=O)[C@H](Cc2ccc(O)cc2)NC(=O)[C@H](CC(C)C)NC1=O ({CH2CO}-YHRYYRILYGELGCG-NH2; thioether N-14)
0.119	CC[C@H](C)[C@@H]1NC(=O)[C@H](CCCNC(=N)N)NC(=O)[C@H](Cc2ccc(O)cc2)NC(=O)[C@H](Cc2ccc(O)cc2)NC(=O)[C@H](Cc2ccc(O)cc2)NC(=O)[C@H](Cc2c[nH]cn2)NC(=O)[C@H](Cc2ccc(O)cc2)NC(=O)CSC[C@@H](C(=O)NCC(N)=O)NC(=O)CNC(=O)[C@H](CC(C)C)NC(=O)[C@H](CCC(=O)O)NC(=O)CNC(=O)[C@H](Cc2ccc(O)cc2)NC(=O)[C@H](CC(C)C)NC1=O ({CH2CO}-YHYYYRILYGELGCG-NH2; thioether N-14)
> 30	CC(C)C[C@@H]1NC(=O)[C@H](CC(=O)O)NC(=O)CNC(=O)[C@H](Cc2ccc(O)cc2)NC(=O)[C@H](CC(C)C)NC(=O)[C@H](CO)NC(=O)[C@H](CCCNC(=N)N)NC(=O)[C@H](Cc2ccc(O)cc2)NC(=O)[C@H](Cc2ccc(O)cc2)NC(=O)[C@H](Cc2c[nH]cn2)NC(=O)[C@H](CCC(N)=O)NC(=O)[C@H](Cc2ccc(O)cc2)NC(=O)CSC[C@@H](C(=O)NCC(N)=O)NC(=O)CNC1=O ({CH2CO}-YQHYYRSLYGDLGCG-NH2; thioether N-14)
